Assay results from patent publication US9975860B2, “Anti-angiogenic compounds” (UNIVERSITY COLLEGE DUBLIN—NATIONAL UNIVERSITY OF IRELAND, …, priority 2014, dated 2018).
Entries after “also recorded” stand apart in the source; their conditions may differ.

Legend:
[1] = tested on: intersegmental vasculature in zebrafish; assay: Quantification of intersegmental vessel number in zebrafish; type: in vivo; conditions: 10 μM; zebrafish embryos treated 6 hpf to 48 hpf
Method: At 6 hours post fertilisation, 5 embryos per well were placed in 400 μL of embryo medium/0.1% DMSO and incubated with 10 μM compound at 28° C. on a 14 h light/10 h dark cycle. At 48 hpf larvae were manually dechorionated, euthanised, and fixed in 4% PFA at 4° C. overnight before analysis. The larvae were then washed with PBS and transferred to depression slides for observation under epi-fluorescence in an Olympus SZX16 fluorescent microscope. The number of intersegmental vessels was counted and the average number was graphed for each drug.
(§1) All experimental protocols were carried out as per example 1 and 2. Briefly, zebrafish larvae were treated with 10 μM of AT-051/41206012 (chemical name 2-[2-(2-methoxyphenyl)ethenyl]pyrazine) purchased from Specs (The Netherlands). At 6 or 48 hours post fertilisation (hpf), 5 embryos per well were placed in 400 μl of Embryo Medium/0.1% DMSO and incubated with 10 μM AT-051/41206012 at 28° C. on a 14 h light/10 h dark cycle. Larvae were treated from 6-48 hpf (intersegmental vessel study) or from 48 to 120 hpf (primary hyaloid vessel study). At the end of the study, larvae were euthanized and fixed in 4% PFA at 4° C. overnight before analysis.
(§2) The number of intersegmental vessels was counted and the average number was graphed for each drug. Right lenses were dissected from the larvae and transferred to depression slides for observation and the number of primary hyaloid vessels radiating from the back of the lens (3-4 main branches at 5 dpf in controls and previously described), was counted and the average number was graphed for each drug.

[2] = tested on: primary hyaloid vessels in zebrafish; assay: Quantification of primary hyaloid vasculature branch number in Tg(fli1:EGFP) zebrafish; type: in vivo
Method: All experiments were carried out under ethical approval granted by the UCD animal research ethics committee. Tg(fli1:EGFP) zebrafish were maintained according to standard procedures on a 14 hr light/10 hr dark cycle at 28° C. Embryos were obtained by natural spawning and developmental stages established by time and morphological criteria. At 48 hours post fertilisation (hpf), 5 embryos per well were placed in 400 μl of Embryo Medium/0.1% DMSO and incubated with compound (typically, 10 μM) at 28° C. on a 14 h light/10 h dark cycle. At 5 days post fertilisation (dpf), larvae were euthanised, and fixed in 4% PFA at 4° C. overnight before analysis.
Prior to analysis of the intraocular vasculature, the control and treated larvae were observed under an Olympus SZX16 stereo zoom microscope and screened for general malformations. Overall patterning of the vasculature (fin, gut and intersegmental vessels) was examined for abnormalities. Right lenses were dissected from the larvae and transferred to depression slides for observation under epi-fluorescence in the Olympus SZX16. Patterning of the hyaloid vessels on the treated larval lenses was compared to 0.1% DMSO controls and the archetypal pattern previously described (Alvarez et al., 2007; Alvarez et al., 2009). The number of primary vessels radiating from the back of the lens (3-4 main branches at 5 dpf in controls and previously described), was counted and the average number was graphed for each drug.
as §1, §2

[3] = tested on: human retinal (ARPE-19) cells; assay: MTT cell viability assay in ARPE-19; type: cell-based; conditions: 5, 10, 25, 50, 75 or 90 μM, 96 hours
Method: A 3-(4,5-dimethylthiozol-2-yl)-2,5-diphenyltetrazolium bromide (MTT) dye reduction assay was carried out to determine the cytotoxicity of each compound on either human microvascular endothelial cells (HMECs) or human retinal pigmented epithelium cells (ARPE-19). Cells were maintained in a 95% air and 5% CO2 atmosphere at 37° C. in Dulbecco modified Eagle medium (DMEM, Sigma Aldrich) with 10% fetal bovine serum, 2 mM Gibco® L-glutamine and 100 units/ml penicillin, 1 mg/ml streptomycin (Invitrogen) supplementation. On day 1, cells were trypsinized (Trypsin-EDTA 1×) and seeded 1.4×10^4 cells per well of a 96 well plate and incubated overnight. On day 2, cells were serum staved in DMEM with L-glutamine and penicillin-streptomycin supplementation for 24 h. On day 3, cells were drug treated for 24 h (HMECs) or 96 h (ARPE-19 cells) with 0.1% DMSO or 10 μM to 90 μM of each compound 4, 8, 15, 18 or 20, with 4 replicate wells of each compound. After 24-96 h, cells were incubated with […] 5 mg/ml MTT labelling Reagent (Roche) for 2 h. Subsequently, when purple formazan crystals formed cells were incubated with 1× solubilisation solution (Roche) for 4 h and absorbance read at 570 nm using a microplate reader.

mouse aortic ring = assay: Ex vivo mouse aortic ring assay (sprout formation); conditions: 10 μM; C57/BL6 mouse aortic rings in matrigel; vs 0.1% DMSO; hydrochloride
Method: Aortae from sex matched C57/BL6 littermates were cleansed of adipose tissue, cut into 2 mm rings and immersed in matrigel. Aortic rings (6 per experiment) were treated with 0.1% DMSO (vehicle control/VC) or with 10 μM of Compound 4, Compound 12, Compound 15 or Compound 20. Sprouts from the perimeter of the aortic ring were counted and quantified as percentage of vehicle control (VC).

[4] = 10 μM, zebrafish larvae treated 48 hpf to 5 dpf, vs 0.1% DMSO control
[5] = concentrations below 10 μM (range 1, 2.5, 5, 7.5 and 10 μM tested), zebrafish larvae 48 hpf to 5 dpf

COc1ccccc1/C=C/c1cnccn1 [AT-051/41206012, 2-[2-(2-methoxyphenyl)ethenyl]pyrazine]
inhibition of developmental angiogenesis of intersegmental vessels (number of intersegmental vessels) [1]: does not inhibit developmental angiogenesis of the intersegmental vessels; also recorded: does not affect the development of intersegmental vessels | inhibition of developmental angiogenesis of the hyaloid vasculature (number of primary hyaloid vessels) [2, 4]: significantly inhibits developmental angiogenesis of zebrafish hyaloid vessels; also recorded: does inhibit developmental angiogenesis of the zebrafish hyaloid vasculature in a statistically significant manner

Oc1ccccc1/C=C/c1ccccn1 [Compound 1, (E)-2-[2-(Pyridin-2-yl)vinyl]phenol]
inhibition of developmental angiogenesis of the hyaloid vasculature (number of primary hyaloid vessels) [2, 4]: inhibit developmental angiogenesis of the zebrafish hyaloid vasculature in a statistically significant manner

Cl.Oc1ccccc1/C=C/c1ccccn1 [Compound 2, (E)-2-[2-(Pyridin-2-yl)vinyl]phenol hydrochloride]
inhibition of developmental angiogenesis of intersegmental vessels (number of intersegmental vessels) [1]: inhibit developmental angiogenesis of zebrafish intersegmental vessels in a statistically significant manner | inhibition of developmental angiogenesis of the hyaloid vasculature (number of primary hyaloid vessels) [2, 4]: inhibit developmental angiogenesis of the zebrafish hyaloid vasculature in a statistically significant manner | inhibition of developmental angiogenesis of the hyaloid vasculature (number of primary hyaloid vessels) [2, 5]: inhibit developmental angiogenesis of the zebrafish hyaloid vasculature in a statistically significant manner

Oc1ccccc1/C=C/c1cnccn1 [Compound 3, (E)-2-[2-(Pyrazin-2-yl)vinyl]phenol]
inhibition of developmental angiogenesis of intersegmental vessels (number of intersegmental vessels) [1]: inhibit developmental angiogenesis of zebrafish intersegmental vessels in a statistically significant manner | inhibition of developmental angiogenesis of the hyaloid vasculature (number of primary hyaloid vessels) [2, 4]: inhibit developmental angiogenesis of the zebrafish hyaloid vasculature in a statistically significant manner | inhibition of developmental angiogenesis of the hyaloid vasculature (number of primary hyaloid vessels) [2, 5]: inhibit developmental angiogenesis of the zebrafish hyaloid vasculature in a statistically significant manner

Cc1cccc(/C=C/c2ccccc2O)n1.Cl [Compound 8, (E)-2-[2-(6-Methylpyridin-2-yl)vinyl]phenol hydrochloride]
cell viability (MTT assay) [3]: does not affect cell viability | inhibition of developmental angiogenesis of the hyaloid vasculature (number of primary hyaloid vessels) [2, 4]: inhibit developmental angiogenesis of the zebrafish hyaloid vasculature in a statistically significant manner | inhibition of developmental angiogenesis of the hyaloid vasculature (number of primary hyaloid vessels) [2, 5]: inhibit developmental angiogenesis of the zebrafish hyaloid vasculature in a statistically significant manner

C/C(=C\c1ccccc1O)c1cnccn1 [Compound 11, (E)-2-[2-(Pyrazin-2-yl)prop-1-enyl]phenol]
inhibition of developmental angiogenesis of the hyaloid vasculature (number of primary hyaloid vessels) [2, 4]: inhibit developmental angiogenesis of the zebrafish hyaloid vasculature in a statistically significant manner

Cc1ccc(O)c(/C=C/c2cnccn2)c1 [Compound 13, (E)-4-Methyl-[2-(2-(pyrazin-2-yl)vinyl)]phenol]
inhibition of developmental angiogenesis of the hyaloid vasculature (number of primary hyaloid vessels) [2, 4]: inhibit developmental angiogenesis of the zebrafish hyaloid vasculature in a statistically significant manner

Cc1ccc(O)c(/C=C/c2cnccn2)c1.Cl [Compound 14, (E)-4-Methyl-[2-(2-(Pyrazin-2-yl)vinyl)]phenol hydrochloride]
inhibition of developmental angiogenesis of the hyaloid vasculature (number of primary hyaloid vessels) [2, 4]: inhibit developmental angiogenesis of the zebrafish hyaloid vasculature in a statistically significant manner

Cl.Oc1ccccc1/C=C/c1ncccn1 [Compound 15, (E)-2-[2-(Pyrimidin-2-yl)vinyl]phenol hydrochloride]
cell viability (MTT assay) [3]: does not affect cell viability | angiogenesis (sprout formation) in aortic rings (mouse aortic ring): block angiogenesis (sprout formation); also recorded: inhibit the formation of sprouts in a statistically significant manner | inhibition of developmental angiogenesis of the hyaloid vasculature (number of primary hyaloid vessels) [2, 4]: inhibit developmental angiogenesis of the zebrafish hyaloid vasculature in a statistically significant manner

COc1ccccc1C#Cc1cnccn1 [Compound 19, 2-[2-(2-Methoxyphenyl)ethynyl]pyrazine]
inhibition of developmental angiogenesis of intersegmental vessels (number of intersegmental vessels) [1]: inhibit developmental angiogenesis of zebrafish intersegmental vessels in a statistically significant manner | inhibition of developmental angiogenesis of the hyaloid vasculature (number of primary hyaloid vessels) [2, 5]: inhibit developmental angiogenesis of the zebrafish hyaloid vasculature in a statistically significant manner

Cl.Oc1ccccc1C#Cc1cnccn1 [Compound 20, 2-[2-(pyrazin-2-yl)ethynyl]phenol hydrochloride]
cell viability (MTT assay) [3]: does not affect cell viability | angiogenesis (sprout formation) in aortic rings (mouse aortic ring): block angiogenesis (sprout formation); also recorded: inhibit the formation of sprouts in a statistically significant manner | inhibition of developmental angiogenesis of intersegmental vessels (number of intersegmental vessels) [1]: inhibit developmental angiogenesis of zebrafish intersegmental vessels in a statistically significant manner | inhibition of developmental angiogenesis of the hyaloid vasculature (number of primary hyaloid vessels) [2, 4]: inhibit developmental angiogenesis of the zebrafish hyaloid vasculature in a statistically significant manner | inhibition of developmental angiogenesis of the hyaloid vasculature (number of primary hyaloid vessels) [2, 5]: inhibit developmental angiogenesis of the zebrafish hyaloid vasculature in a statistically significant manner

Cl.Oc1ccccc1/C=C/c1ncc[nH]1 [Compound 23, (E)-2-(2-(IH-Imidazol-2-yl)vinyl)phenol hydrochloride]
inhibition of developmental angiogenesis of the hyaloid vasculature (number of primary hyaloid vessels) [2, 4]: inhibit developmental angiogenesis of the zebrafish hyaloid vasculature in a statistically significant manner
